PubChem BioAssay AID1845217 (Molecular Pharmacology Branch, DTP, NCI, 2023)
pIC50: −log10 of the molar value. “And” between values parts separate entries of the source, which are not always exact repeats. Identical values can stand only once.

Test system: VA-ES-BJ tumor spheroid viability
Assay: Anticancer human tumor VA-ES-BJ cell line growth inhibition;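 note: spheroids exposed to compounds for seven days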;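 for viability, T/C: percent of DMSO vehicle control viability so 100% = untreated growth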
Conditions: spheroids with HUVEC and MSC; for viability, T/C: stronger effect = lower value
Outline: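 Single agents and combinations were tested on spheroids built from tumor cells plus HUVEC and hMSC, at half-log dilutions starting at or near clinical Cmax, else 10 microM; final DMSO 0.25% (v/v).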

[1] = curve of first compound, second compound 0.003 µM

## CC(C)n1c(=O)n(C)c2cnc3cc(F)c(-c4ccc(OCCCN5CCCCC5)nc4)cc3c21 + CC[C@@]1(O)C(=O)OCc2c1cc1n(c2=O)Cc2cc3c(CN(C)C)c(O)ccc3nc2-1
[1]
  pIC50: 5.40
Curve of first compound, second compound 0.00949 µM
  pIC50: > 7.50
Curve of first compound, second compound 0.03 µM
  pIC50: > 7.50
Curve of first compound, second compound 0.0949 µM
  pIC50: > 7.50
Curve of first compound, second compound 0.3 µM
  pIC50: > 7.50
Second compound 0.003 µM, first compound 0.0316 µM
  viability, T/C: 82.7%
Second compound 0.003 µM, first compound 0.1 µM
  viability, T/C: 76%
Second compound 0.003 µM, first compound 0.316 µM
  viability, T/C: 80%
Second compound 0.003 µM, first compound 1 µM
  viability, T/C: 77.3%
Second compound 0.003 µM, first compound 3.16 µM
  viability, T/C: 54.7%
Second compound 0.003 µM, first compound 10 µM
  viability, T/C: 30.8%
Second compound 0.00949 µM, first compound 0.0316 µM
  viability, T/C: 50.8%
Second compound 0.00949 µM, first compound 0.1 µM
  viability, T/C: 46.3%
Second compound 0.00949 µM, first compound 0.316 µM
  viability, T/C: 45.3%
Second compound 0.00949 µM, first compound 1 µM
  viability, T/C: 44.5%
Second compound 0.00949 µM, first compound 3.16 µM
  viability, T/C: 37.3%
Second compound 0.00949 µM, first compound 10 µM
  viability, T/C: 20.5%
Second compound 0.03 µM, first compound 0.0316 µM
  viability, T/C: 30.3%
Second compound 0.03 µM, first compound 0.1 µM
  viability, T/C: 27.4%
Second compound 0.03 µM, first compound 0.316 µM
  viability, T/C: 31.4%
Second compound 0.03 µM, first compound 1 µM
  viability, T/C: 26.9%
Second compound 0.03 µM, first compound 3.16 µM
  viability, T/C: 27.5%
Second compound 0.03 µM, first compound 10 µM
  viability, T/C: 11.9%
Second compound 0.0949 µM, first compound 0.0316 µM
  viability, T/C: 6.85%
Second compound 0.0949 µM, first compound 0.1 µM
  viability, T/C: 6.85%
Second compound 0.0949 µM, first compound 0.316 µM
  viability, T/C: 7.33%
Second compound 0.0949 µM, first compound 1 µM
  viability, T/C: 7.9%
Second compound 0.0949 µM, first compound 3.16 µM
  viability, T/C: 8.2%
Second compound 0.0949 µM, first compound 10 µM
  viability, T/C: 7.69%
Second compound 0.3 µM, first compound 0.0316 µM
  viability, T/C: 4.4%
Second compound 0.3 µM, first compound 0.1 µM
  viability, T/C: 4.06%
Second compound 0.3 µM, first compound 0.316 µM
  viability, T/C: 3.67%
Second compound 0.3 µM, first compound 1 µM
  viability, T/C: 3.49%
Second compound 0.3 µM, first compound 3.16 µM
  viability, T/C: 3.07%
Second compound 0.3 µM, first compound 10 µM
  viability, T/C: 2.74%

## O=C(c1cc(Cc2n[nH]c(=O)c3ccccc23)ccc1F)N1CCN(C(=O)C2CC2)CC1 + COc1cc2c(cc1O)CCNC21CSC2c3c(OC(C)=O)c(C)c4c(c3C(COC1=O)N1C(O)C3Cc5cc(C)c(OC)c(O)c5C(C21)N3C)OCO4
Curve of first compound, second compound 30 pM
  pIC50: 4.72
Curve of first compound, second compound 94.9 pM
  pIC50: 4.95
Curve of first compound, second compound 0.0003 µM
  pIC50: > 7.02
Curve of first compound, second compound 0.000949 µM
  pIC50: > 7.02
[1]
  pIC50: > 7.02
Second compound 30 pM, first compound 0.0949 µM
  viability, T/C: 86%
Second compound 30 pM, first compound 0.3 µM
  viability, T/C: 95.8%
Second compound 30 pM, first compound 0.949 µM
  viability, T/C: 99%
Second compound 30 pM, first compound 3 µM
  viability, T/C: 91%
Second compound 30 pM, first compound 9.49 µM
  viability, T/C: 65%
Second compound 30 pM, first compound 30 µM
  viability, T/C: 40.1%
Second compound 94.9 pM, first compound 0.0949 µM
  viability, T/C: 90.5%
Second compound 94.9 pM, first compound 0.3 µM
  viability, T/C: 84.7%
Second compound 94.9 pM, first compound 0.949 µM
  viability, T/C: 86.9%
Second compound 94.9 pM, first compound 3 µM
  viability, T/C: 76.9%
Second compound 94.9 pM, first compound 9.49 µM
  viability, T/C: 54.1%
Second compound 94.9 pM, first compound 30 µM
  viability, T/C: 24.4%
Second compound 0.0003 µM, first compound 0.0949 µM
  viability, T/C: 44.3%
Second compound 0.0003 µM, first compound 0.3 µM
  viability, T/C: 40.7%
Second compound 0.0003 µM, first compound 0.949 µM
  viability, T/C: 43.6%
Second compound 0.0003 µM, first compound 3 µM
  viability, T/C: 33.2%
Second compound 0.0003 µM, first compound 9.49 µM
  viability, T/C: 16.1%
Second compound 0.0003 µM, first compound 30 µM
  viability, T/C: 5.05%
Second compound 0.000949 µM, first compound 0.0949 µM
  viability, T/C: 3.35%
Second compound 0.000949 µM, first compound 0.3 µM
  viability, T/C: 2.46%
Second compound 0.000949 µM, first compound 0.949 µM
  viability, T/C: 3.04%
Second compound 0.000949 µM, first compound 3 µM
  viability, T/C: 2.86%
Second compound 0.000949 µM, first compound 9.49 µM
  viability, T/C: 1.46%
Second compound 0.000949 µM, first compound 30 µM
  viability, T/C: 0.33%
Second compound 0.003 µM, first compound 0.0949 µM
  viability, T/C: 1.2%
Second compound 0.003 µM, first compound 0.3 µM
  viability, T/C: 1.64%
Second compound 0.003 µM, first compound 0.949 µM
  viability, T/C: 1.77%
Second compound 0.003 µM, first compound 3 µM
  viability, T/C: 2.03%
Second compound 0.003 µM, first compound 9.49 µM
  viability, T/C: 3.45%
Second compound 0.003 µM, first compound 30 µM
  viability, T/C: 4.01%

## CC1COCCN1c1cc(-c2ccnn2C)c2ccnc(-c3ccn[nH]3)c2n1 (stereo unspecified)
Compound 0.0316 µM
  viability, T/C: 9.71% and 87.1% and 84.4%
Compound 0.316 µM
  viability, T/C: 9.14% and 23.2% and 30.3%
Compound 1 µM
  viability, T/C: 5.45% and 9.1% and 11%
Compound 3.16 µM
  viability, T/C: 5.18% and 6.34% and 6.93%
Compound 10 µM
  viability, T/C: 4.89% and 6.26% and 6.35%
Curve of compound
  pIC50: > 7.50 and 6.96 and 6.82
